# Results from US9469615B2, “Quinoxalines and AZA-quinoxalines as CRTH2 receptor modulators” (Merck Sharp & Dohme Corp., priority 2010, dated 2016).
# Molecular target: T1, hCRTH2 (Homo sapiens, UniProt Q9Y5Y4)
# T1 construct: expressed in transfected cells; host or cells: HEK (human embryonic kidney) cells expressing hCRTH2; membrane preparation
# T1 sequence (Q9Y5Y4 1-395): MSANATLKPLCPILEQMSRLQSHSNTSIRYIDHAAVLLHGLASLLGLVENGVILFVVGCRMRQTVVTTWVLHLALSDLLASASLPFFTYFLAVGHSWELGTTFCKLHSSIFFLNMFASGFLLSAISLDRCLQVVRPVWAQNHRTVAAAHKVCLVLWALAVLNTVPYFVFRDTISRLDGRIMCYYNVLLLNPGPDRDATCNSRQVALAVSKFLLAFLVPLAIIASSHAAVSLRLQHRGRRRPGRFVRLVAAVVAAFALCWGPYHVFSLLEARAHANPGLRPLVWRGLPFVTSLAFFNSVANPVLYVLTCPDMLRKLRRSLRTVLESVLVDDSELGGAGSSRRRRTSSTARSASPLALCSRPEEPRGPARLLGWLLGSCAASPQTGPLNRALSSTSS
# Test: Radioligand binding assay ([3H]PGD2 competition, HEK-hCRTH2 membranes)
# Conditions: [3H]PGD2 competition, Table B
# Outline: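 Filter-bound radioactivity was counted by scintillation after 60 min incubations at room temperature. Membranes (8-20 μg) from HEK cells expressing hCRTH2 competed test ligands against 3.0 nM [3H]PGD2 in Tris-HCl pH 7.4 buffer with EDTA and 2 mM MnCl2; 10 μM PGD2 set non-specific binding.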
row,Structure (SMILES),Ki [nM]
1,"CCc1nnc2n1CCN(C(=O)c1ccc3nc(-c4ccc(Cl)cc4)c(CCCCC(=O)O)nc3c1)C2 [compound 673, 5-(3-(4-chlorophenyl)-7-(3-ethyl-5,6,7,8-tetrahydro-[1,2,4]triazolo[4,3-a]pyrazine-7-carbonyl)quinoxalin-2-yl)pentanoic acid]",20.1 to 200
2,"CN1CCN(C(=O)c2ccc3nc(-c4ccc(Cl)cc4)c(CCCCC(=O)O)nc3c2)CC1c1ccccc1 (stereo not drawn) [compound 674, 5-(3-(4-chlorophenyl)-7-(4-methyl-3-phenylpiperazine-1-carbonyl)quinoxalin-2-yl)pentanoic acid]",2.1 to 20
3,"Cc1nonc1N1CCN(C(=O)c2ccc3nc(-c4ccc(Cl)cc4)c(CCCCC(=O)O)nc3c2)CC1 [compound 675, 5-(3-(4-chlorophenyl)-7-(4-(4-methyl-1,2,5-oxadiazol-3-yl)piperazine-1-carbonyl)quinoxalin-2-yl)pentanoic acid]",2.1 to 20
4,"O=C(O)CCCCc1nc2cc(C(=O)N3CCN(c4ncccc4Cl)CC3)ccc2nc1-c1ccc(Cl)cc1 [compound 676, 5-(3-(4-chlorophenyl)-7-(4-(3-chloropyridin-2-yl)piperazine-1-carbonyl)quinoxalin-2-yl)pentanoic acid]",2.1 to 20
5,"O=C(O)CCCCc1nc2cc(C(=O)N3C[C@@H]4C[C@H]3CN4c3cccc(F)c3)ccc2nc1-c1ccc(Cl)cc1 [compound 677, 5-(3-(4-chlorophenyl)-7-((1S,4S)-5-(3-fluorophenyl)-2,5-diazabicyclo[2.2.1]heptane-2-carbonyl)quinoxalin-2-yl)pentanoic acid]",2.1 to 20
6,"O=C(O)CCCCc1nc2cc(C(=O)N3CCN(C4CCCCC4)C(=O)C3)ccc2nc1-c1ccc(Cl)cc1 [compound 678, 5-(3-(4-chlorophenyl)-7-(4-cyclohexyl-3-oxo-piperazine-1-carbonyl)quinoxalin-2-yl)pentanoic acid]",2.1 to 20
7,"O=C(O)CCCCc1nc2cc(C(=O)N3CCN(c4cccnc4)CC3)ccc2nc1-c1ccc(Cl)cc1 [compound 679, 5-(3-(4-chlorophenyl)-7-(4-(pyridin-3-y)piperazine-1-carbonyl)quinoxalin-2-yl)pentanoic acid]",2.1 to 20
8,"O=C(O)CCCCc1nc2cc(C(=O)N3C[C@@H]4C[C@H]3CN4c3ccc(F)cc3)ccc2nc1-c1ccc(Cl)cc1 [compound 680, 5-(3-(4-chlorophenyl)-7-((1S,4S)-5-(4-fluorophenyl)-2,5-diazabicyclo[2.2.1]heptane-2-carbonyl)quinoxalin-2-yl)pentanoic acid]",2.1 to 20
9,"Cc1cnc(C)c(N2CCN(C(=O)c3ccc4nc(-c5ccc(Cl)cc5)c(CCCCC(=O)O)nc4c3)CC2)n1 [compound 681, 5-(3-(4-chlorophenyl)-7-(4-(3,6-dimethylpyrazin-2-yl)piperazine-1-carbonyl)quinoxalin-2-yl)pentanoic acid]",2.1 to 20
10,"O=C(O)CCCCc1nc2cc(C(=O)N3CCN(Cc4ccncc4)CC3)ccc2nc1-c1ccc(Cl)cc1 [compound 682, 5-(3-(4-chlorophenyl)-7-(4-(pyridin-4-ylmethyl)piperazine-1-carbonyl)quinoxalin-2-yl)pentanoic acid]",20.1 to 200
11,"Cc1cnccc1N1CCN(C(=O)c2ccc3nc(-c4ccc(Cl)cc4)c(CCCCC(=O)O)nc3c2)CC1 [compound 683, 5-(3-(4-chlorophenyl)-7-(4-(3-methylpyridin-4-yl)piperazine-1-carbonyl)quinoxalin-2-yl)pentanoic acid]",2.1 to 20
12,"Cc1cc(N2CCN(C(=O)c3ccc4nc(-c5ccc(Cl)cc5)c(CCCCC(=O)O)nc4c3)CC2)sn1 [compound 684, 5-(3-(4-chlorophenyl)-7-(4-(3-methylisothiazol-5-yl)piperazine-1-carbonyl)quinoxalin-2-yl)pentanoic acid]",2.1 to 20
13,"O=C(O)CCCCc1nc2cc(C(=O)N3CCN(c4nnc(C5CC5)o4)CC3)ccc2nc1-c1ccc(Cl)cc1 [compound 685, 5-(3-(4-chlorophenyl)-7-(4-(5-cyclopropyl-1,3,4-oxadiazo1-2-yl)piperazine-1-carbonyl)quinoxalin-2-yl)pentanoic acid]",20.1 to 200
14,"O=C(O)CCCCc1nc2cc(C(=O)N3C[C@@H]4C[C@H]3CN4Cc3ccccc3)ccc2nc1-c1ccc(Cl)cc1 [compound 686, 5-(7-((1S,4S)-5-benzyl-2,5-diazabicyclo[2.2.1]heptane-2-carbonyl)-3-(4-chlorophenyl)quinoxalin-2-yl)pentanoic acid]",20.1 to 200
15,"O=C(O)CCCCc1nc2cc(C(=O)N[C@H](CO)c3ccc(F)cc3)ccc2nc1-c1ccc(Cl)cc1 [compound 687, (S)-5-(3-(4-chlorophenyl)-7-((1-(4-fluorophenyl)-2-hydroxyethyl)carbamoyl)quinoxalin-2-yl) pentanoic acid]",2.1 to 20
16,"O=C(O)CCCCc1nc2cc(C(=O)N[C@H](CO)c3ccc(F)cc3)ccc2nc1-c1ccccc1 [compound 688, (S)-5-(7-((1-(4-fluorophenyl)-2-hydroxyethyl)carbamoyl)-3-phenylquinoxalin-2-yl)pentanoic acid]",20.1 to 200
17,"O=C(O)CCCCc1nc2cc(C(=O)N3CCC(O)(c4ccccc4)C3)ccc2nc1-c1ccc(Cl)cc1 (stereo not drawn) [compound 689, 5-(3-(4-chlorophenyl)-7-(3-hydroxy-3-phenylpyrrolidine-1-carbonyl)quinoxalin-2-yl)pentanoic acid]",2.1 to 20
18,"O=C(O)CCCCc1nc2cc(C(=O)N3CC4CC4(c4ccccc4)C3)ccc2nc1-c1ccc(Cl)cc1 (stereo not drawn) [compound 690, 5-(3-(4-chlorophenyl)-7-(1-phenyl-3-azabicyclo[3.1.0]hexane-3-carbonyl)quinoxalin-2-yl)pentanoic acid]",2.1 to 20
19,"O=C(O)CCCCc1nc2cc(C(=O)NC3CC(=O)Nc4ccccc43)ccc2nc1-c1ccc(Cl)cc1 (stereo not drawn) [compound 691, 5-(3-(4-chlorophenyl)-7-((2-oxo-1,2,3,4-tetrahydroquinolin-4-yl)carbamoyl)quinoxalin-2-yl)pentanoic acid]",2.1 to 20
20,"O=C(O)CCCCc1nc2cc(C(=O)N[C@H]3CCOc4cc(C(F)(F)F)ccc43)ccc2nc1-c1ccc(Cl)cc1 [compound 692, (S)-5-(3-(4-chlorophenyl)-7-((7-(trifluoromethyl)chroman-4-yl)carbamoyl)quinoxalin-2-yl)pentanoic acid]",2.1 to 20
21,"CC(C)(NC(=O)c1ccc2nc(-c3ccc(Cl)cc3)c(CCCCC(=O)O)nc2c1)c1ccc(F)cc1 [compound 693, 5-(3-(4-chlorophenyl)-7-((2-(4-fluorophenyl)propan-2-yl)carbamoyl)quinoxalin-2-yl)pentanoic acid]",2.1 to 20
22,"O=C(O)CCCCc1nc2cc(C(=O)NC3CCOc4c(F)cc(F)cc43)ccc2nc1-c1ccc(Cl)cc1 (stereo not drawn) [compound 694, 5-(3-(4-chlorophenyl)-7-((6,8-difluorochroman-4-yl)carbamoyl)quinoxalin-2-yl)pentanoic acid]",2.1 to 20
23,"CN1C(=O)c2ccccc2C12CCN(C(=O)c1ccc3nc(-c4ccc(Cl)cc4)c(CCCCC(=O)O)nc3c1)CC2 [compound 695, 5-(3-(4-chlorophenyl)-7-(2-methyl-3-oxospiro[isoindoline-1,4′-piperidin]-1′-ylcarbonyl)quinoxalin-2-yl)pentanoic acid]",2.1 to 20
24,"CC1(C)Oc2ccccc2C(NC(=O)c2ccc3nc(-c4ccc(Cl)cc4)c(CCCCC(=O)O)nc3c2)C1O (stereo not drawn) [compound 696, 5-(3-(4-chlorophenyl)-7-((3-hydroxy-2,2-dimethylchroman-4-yl)carbamoyl)quinoxalin-2-yl)pentanoic acid]",2.1 to 20
25,"CS(=O)(=O)c1ccccc1N1CCN(C(=O)c2ccc3nc(-c4ccc(Cl)cc4)c(CCCCC(=O)O)nc3c2)CC1 [compound 697, 5-(3-(4-chlorophenyl)-7-(4-(2-(methylsulfonyl)phenyl)piperazine-1-carbonyl)quinoxalin-2-yl)pentanoic acid]",2.1 to 20
26,"O=C(O)CCCCc1nc2cc(C(=O)N3C[C@H]4CC[C@@H]3CN4Cc3ccccc3)ccc2nc1-c1ccc(Cl)cc1 [compound 698, 5-(7-((1R,4R)-5-benzyl-2,5-diazabicyc1o[2.2.2]octane-2-carbonyl)-3-(4-chlorophenyl)quinoxalin-2-yl)pentanoic acid]",2.1 to 20
27,"O=C(O)CCCCc1nc2cc(C(=O)N3C[C@H]4C[C@@H]3CN4C(=O)OCc3ccccc3)ccc2nc1-c1ccc(Cl)cc1 [compound 699, 5-(7-((1R,4R)-5-((benzyloxy)carbonyl)-2,5-diazabicyclo[2.2.1]heptane-2-carbonyl)-3-(4-chlorophenyl)quinoxalin-2-yl)pentanoic acid]",2.1 to 20
28,"Cc1nc(N2CCN(C(=O)c3ccc4nc(-c5ccc(Cl)cc5)c(CCCCC(=O)O)nc4c3)CC2)cn1C [compound 700, 5-(3-(4-chlorophenyl)-7-(4-(1,2-dimethyl-1H-imidazol-4-yl)piperazine-1-carbonyl)quinoxalin-2-yl)pentanoic acid]",20.1 to 200
29,"O=C(O)CCCCc1nc2cc(C(=O)N3CCN(c4nc5ccccc5o4)CC3)ccc2nc1-c1ccc(Cl)cc1 [compound 701, 5-(7-(4-(benzo[d]oxazol-2-yl)piperazine-1-carbonyl)-3-(4-chlorophenyl)quinoxalin-2-yl)pentanoic acid]",2.1 to 20
30,O=C(O)CCCCc1nc2cc(C(=O)N3[C@@H]4CC[C@H]3CN(Cc3ccccc3)C4)ccc2nc1-c1ccc(Cl)cc1 [compound 702],2.1 to 20
